Assay: osmotic coefficient (dimensionless); mn = molality of the nth substance listed, in mol/kg
Conditions: 298.15 K, Liquid, isopiestic method

O=S(=O)([O-])[O-].[K+].[K+] [potassium sulfate] + O
Conditions	osmotic coefficient
m1 = 0.4526	0.693
m1 = 0.4667	0.692
m1 = 0.4747	0.691
m1 = 0.5108	0.686
m1 = 0.5495	0.682
m1 = 0.5708	0.68
m1 = 0.6064	0.677
m1 = 0.6321	0.675
m1 = 0.6366	0.673
m1 = 0.6529	0.673
